According to US20220332700A1, “NOVEL APOPTOSIS SIGNAL-REGULATING KINASE 1 INHIBITORS” (MANKIND PHARMA LTD, priority 2019, published 2022):
pIC50: −log10 of the molar value.

Assays:
recombinant ASK1 = target: T1, recombinant ASK1 (Homo sapiens, UniProt Q99683); experiment: ASK1 Biochemical Assay (HTRF KinEASE-STK S3); conditions: ATP 100 μM; read-out: Biochemical Assay IC50
T1 construct: purchased Carna Biosciences
In short: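 Recombinant ASK1 (5 ng) preincubated with compound 1 h at 23 °C in MOPS pH 7 buffer with Mg-acetate, DTT, NP40, glycerol, BSA and 1% DMSO. Inhibition calculated against vehicle after substrate-blank subtraction.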

Human ASK1 = target: T2, Human ASK1 (Homo sapiens, UniProt Q99683); experiment: ASK1 Cell Based Assay (phospho p38 read out in hASK1 transfected HEK293T-AP1 cells); conditions: HEK293T-AP1 cells, 1 mM hydrogen peroxide, phospho p38; read-out: Cell Based Assay IC50
T2 construct: expressed in transfected cells; host or cells: HEK293T-AP1
T2 sequence (Q99683 1-1374): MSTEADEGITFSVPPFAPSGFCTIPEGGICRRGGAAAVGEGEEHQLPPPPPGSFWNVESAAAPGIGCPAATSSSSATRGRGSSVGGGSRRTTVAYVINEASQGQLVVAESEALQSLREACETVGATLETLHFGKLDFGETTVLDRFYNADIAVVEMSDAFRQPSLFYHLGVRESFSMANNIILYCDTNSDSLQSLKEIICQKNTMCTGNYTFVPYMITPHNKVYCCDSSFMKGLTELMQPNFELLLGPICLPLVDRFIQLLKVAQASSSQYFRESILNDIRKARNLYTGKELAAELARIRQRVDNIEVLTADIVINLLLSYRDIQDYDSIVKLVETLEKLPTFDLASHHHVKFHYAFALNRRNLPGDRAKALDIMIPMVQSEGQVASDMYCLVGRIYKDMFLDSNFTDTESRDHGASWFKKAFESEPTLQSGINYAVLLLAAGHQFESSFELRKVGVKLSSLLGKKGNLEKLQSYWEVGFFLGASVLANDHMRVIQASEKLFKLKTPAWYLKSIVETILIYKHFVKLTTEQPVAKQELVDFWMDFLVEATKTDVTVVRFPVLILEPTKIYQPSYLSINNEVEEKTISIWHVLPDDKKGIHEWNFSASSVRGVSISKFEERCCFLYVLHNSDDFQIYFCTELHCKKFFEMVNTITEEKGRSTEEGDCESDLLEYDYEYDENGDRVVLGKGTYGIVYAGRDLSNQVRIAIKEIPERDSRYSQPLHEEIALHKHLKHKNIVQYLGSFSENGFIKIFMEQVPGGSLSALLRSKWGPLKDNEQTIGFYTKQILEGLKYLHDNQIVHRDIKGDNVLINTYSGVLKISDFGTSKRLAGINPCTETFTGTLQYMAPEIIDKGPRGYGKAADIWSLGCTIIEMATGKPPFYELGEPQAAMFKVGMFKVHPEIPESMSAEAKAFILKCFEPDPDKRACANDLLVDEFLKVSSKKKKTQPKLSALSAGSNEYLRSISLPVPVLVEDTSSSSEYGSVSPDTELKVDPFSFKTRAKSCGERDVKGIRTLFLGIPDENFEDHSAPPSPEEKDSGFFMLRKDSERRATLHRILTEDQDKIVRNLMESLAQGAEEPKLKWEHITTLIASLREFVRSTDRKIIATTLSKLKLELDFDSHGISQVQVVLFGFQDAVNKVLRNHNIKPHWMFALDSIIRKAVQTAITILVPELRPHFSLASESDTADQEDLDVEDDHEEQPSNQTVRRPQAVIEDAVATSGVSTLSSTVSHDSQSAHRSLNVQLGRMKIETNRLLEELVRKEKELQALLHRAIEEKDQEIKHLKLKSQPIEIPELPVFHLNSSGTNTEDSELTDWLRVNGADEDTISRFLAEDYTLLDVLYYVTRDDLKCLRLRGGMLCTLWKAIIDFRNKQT
Experimental: HEK293T-AP1 cells were seeded at a density of 20,000 cells per well in a poly-d-lysine coated 96 well microplate. Next day, cells were transfected with hASK1-pcDNA3.1 vector using lipofectamine 3000. After 24 hours of transfection, cells were treated with compounds for 24 hours in assay medium. DMSO was used as a vehicle control with a final DMSO concentration of 0.2%. On 4th day, medium was discarded and cells were activated with 1 mM hydrogen peroxide for 1 hour in the presence of compounds. Cells were lysed for 1 hour with 1× lysis buffer on a shaker at 100 rpm. Sixteen microliters of lysate was collected into a 384 well small volume plate. Phospho p38 levels in the lysate was detected by using CisbioPhospho-p38 MAPK (Thr180/Tyr182) #64P38PEG.Four microliters of phospho p38 antibodies labelled with europium cryptate and d2 acceptor, were added to the lysate and incubated overnight. TR-FRET was measured at an excitation of 335 nm and emission was measured at 615 nm and 665 nm in BMG FLUOstar multimode reader.
Compounds were assessed for ASK1 inhibition based on phospho p38 read out. […] Background control values were susbtracted from vehicle control as well as from compound treated wells.

Row | pIC50 (recombinant ASK1) | pIC50 (Human ASK1) | Compound
1 | > 7.00 | < 6.00 | CC(C)n1cnnc1-c1cccc(N2CCN(c3ccc(S(C)(=O)=O)c(C4CC4)c3)C2=O)n1 [Example 1059, 1-(3-cyclopropyl-4-(methylsulfonyl)phenyl)-3-(6-(4-isopropyl-4H-1,2,4-triazol-3-yl)pyridin-2-yl)imidazolidin-2-one]
2 | > 7.00 | < 6.00 | CC(n1cnnc1-c1cccc(N2CCN(c3ccc(S(C)(=O)=O)cc3)C2=O)n1)C(F)(F)F (stereo not drawn) [Example 1061, 1-(6-(4-(1,1,1-trifluoropropan-2-yl)-4H-1,2,4-triazol-3-yl)pyridin-2-yl)-3-(4-(methylsulfonyl)phenyl)imidazolidin-2-one]
3 | > 7.00 | < 6.00 | CC(C)n1cnnc1-c1cccc(N2CCN(c3ccc(S(C)(=O)=O)c(N4CCCCC4)c3)C2=O)n1 [Example 1063, 1-(6-(4-isopropyl-4H-1,2,4-triazol-3-yl)pyridin-2-yl)-3-(4-(methylsulfonyl)-3-(piperidin-1-yl)phenyl)imidazolidin-2-one]
4 | > 7.00 | < 6.00 | CC(C)n1cnnc1-c1cccc(N2CCN(c3ccc(C4CCOCC4)cc3)C2=O)n1 [Example 1066, 1-(4-(tetrahydro-2H-pyran-4-yl)phenyl)-3-(6-(4-isopropyl-4H-1,2,4-triazol-3-yl)pyridin-2-yl)imidazolidin-2-one]
5 | > 7.00 | < 7.00 | CC(C)n1cnnc1-c1cccc(N2CCN(c3ccc(N4CCC(O)CC4)cc3)C2=O)n1 [Example 1067, 1-(4-(4-hydroxypiperidin-1-yl)phenyl)-3-(6-(4-isopropyl-4H-1,2,4-triazol-3-yl)pyridin-2-yl)imidazolidin-2-one]
6 | > 7.00 | < 7.00 | CC1COCC(=O)N1c1ccc(N2CCN(c3cccc(-c4nncn4C(C)C)n3)C2=O)cc1 (stereo not drawn) [Example 1068, 4-(4-(3-(6-(4-isopropyl-4H-1,2,4-triazol-3-yl)pyridin-2-yl)-2-oxoimidazolidin-1-yl)phenyl)-5-methylmorpholin-3-one]
7 | > 7.00 | < 7.00 | CC1COCCN1c1ccc(N2CCN(c3cccc(-c4nncn4C(C)C)n3)C2=O)cc1 (stereo not drawn) [Example 1069, 1-(6-(4-isopropyl-4H-1,2,4-triazol-3-yl)pyridin-2-yl)-3-(4-(3-methylmorpholino)phenyl)imidazolidin-2-one]
8 | > 7.00 | < 7.00 | CC(C)n1cnnc1-c1cccc(N2CCN(c3ccc(S(=O)(=O)N4CCOCC4)cc3)C2=O)n1 [Example 1073, 1-(6-(4-isopropyl-4H-1,2,4-triazol-3-yl)pyridin-2-yl)-3-(4-(morpholinosulfonyl)phenyl)imidazolidin-2-one]
9 | > 7.00 | < 7.00 | CC(C)n1cnnc1-c1cccc(N2CCN(c3ccc(N4CC5(COC5)C4)cc3)C2=O)n1 [Example 1074, 1-(4-(2-oxa-6-azaspiro[3.3]heptan-6-yl)phenyl)-3-(6-(4-isopropyl-4H-1,2,4-triazol-3-yl)pyridin-2-yl)imidazolidin-2-one]
10 | > 7.00 | < 6.00 | CC(C)n1cnnc1-c1cccc(N2CCN(c3ccc(N4CCOCC4)c(F)c3)C2=O)n1 [Example 1075, 1-(3-fluoro-4-morpholinophenyl)-3-(6-(4-isopropyl-4H-1,2,4-triazol-3-yl)pyridin-2-yl)imidazolidin-2-one]
11 | > 7.00 | < 6.00 | CC1CN(c2ccc(N3CCN(c4cccc(-c5nncn5C(C)C)n4)C3=O)cc2)C(=O)CO1 (stereo not drawn) [Example 1076, 4-(4-(3-(6-(4-isopropyl-4H-1,2,4-triazol-3-yl)pyridin-2-yl)-2-oxoimidazolidin-1-yl)phenyl)-6-methylmorpholin-3-one]
12 | > 7.00 | < 7.00 | CC(C)n1cnnc1-c1cccc(N2CCN(c3ccc(C(=O)N4CCOCC4)cc3)C2=O)n1 [Example 1077, 1-(6-(4-isopropyl-4H-1,2,4-triazol-3-yl)pyridin-2-yl)-3-(4-(morpholine-4-carbonyl)phenyl)imidazolidin-2-one]
13 | > 7.00 | < 7.00 | CC1CN(c2ccc(N3CCN(c4cccc(-c5nncn5C(C)C)n4)C3=O)cc2)CCO1 (stereo not drawn) [Example 1078, 1-(6-(4-isopropyl-4H-1,2,4-triazol-3-yl)pyridin-2-yl)-3-(4-(2-methylmorpholino)phenyl)imidazolidin-2-one]
14 | > 7.00 | < 6.00 | CC(C)n1cnnc1-c1cccc(N2CCN(c3ccc(CN4CCOCC4)cc3)C2=O)n1 [Example 1080, 1-(6-(4-isopropyl-4H-1,2,4-triazol-3-yl)pyridin-2-yl)-3-(4-(morpholinomethyl)phenyl)imidazolidin-2-one]
15 | > 7.30 | < 7.00 | CC(C)n1cnnc1-c1cccc(N2CCN(c3ccc(NC4CCOCC4)cc3)C2=O)n1 [Example 1081, 1-(6-(4-isopropyl-4H-1,2,4-triazol-3-yl)pyridin-2-yl)-3-(4-(tetrahydro-2H-pyran-4-ylamino)phenyl)imidazolidin-2-one]
16 | > 7.00 | < 6.00 | CC(C)n1cnnc1-c1cccc(N2CCN(c3ccc(C(O)C(F)(F)F)cc3)C2=O)n1 (stereo not drawn) [Example 1083, 1-(4-(2,2,2-trifluoro-1-hydroxyethyl)phenyl)-3-(6-(4-isopropyl-4H-1,2,4-triazol-3-yl)pyridin-2-yl)imidazolidin-2-one]
17 | > 7.00 | < 6.00 | CC(C)n1cnnc1-c1cccc(N2CCN(c3ccc(C4CCN(S(C)(=O)=O)CC4)cc3)C2=O)n1 [Example 1084, 1-(6-(4-isopropyl-4H-1,2,4-triazol-3-yl)pyridin-2-yl)-3-(4-(1-(methylsulfonyl)piperidin-4-yl)phenyl)imidazolidin-2-one]
18 | > 7.00 | < 7.00 | CC(C)n1cnnc1-c1cccc(N2CCN(c3ccc(N4[C@H](C)COC[C@@H]4C)cc3)C2=O)n1 [Example 1085, 1-(6-(4-isopropyl-4H-1,2,4-triazol-3-yl)pyridin-2-yl)-3-(4-((3R,5S)-3,5-dimethylmorpholino)phenyl)imidazolidin-2-one]
19 | > 7.00 | < 7.00 | CC(C)n1cnnc1-c1cccc(N2CCN(c3ccc(N4CCC(C#N)CC4)cc3)C2=O)n1 [Example 1087, 1-(4-(3-(6-(4-isopropyl-4H-1,2,4-triazol-3-yl)pyridin-2-yl)-2-oxoimidazolidin-1-yl)phenyl)piperidine-4-carbonitrile]
20 | > 7.00 | < 6.00 | CC(C)NC1CN(c2ccc(N3CCN(c4cccc(-c5nncn5C(C)C)n4)C3=O)cc2)C1 [Example 1088, 1-(6-(4-isopropyl-4H-1,2,4-triazol-3-yl)pyridin-2-yl)-3-(4-(3-(isopropylamino)azetidin-1-yl)phenyl)imidazolidin-2-one]
21 | > 7.00 | < 6.00 | CC(C)n1cnnc1-c1cccc(N2CCN(c3ccc(N4CC(O)C4)cc3)C2=O)n1 [Example 1090, 1-(4-(3-hydroxyazetidin-1-yl)phenyl)-3-(6-(4-isopropyl-4H-1,2,4-triazol-3-yl)pyridin-2-yl)imidazolidin-2-one]
